The test system of series [1] is Human umbilical endothelial cells (HUVEC). The series can be described thus: Inhibition of VEGF165-stimulated HUVEC proliferation (3H-thymidine incorporation). It counts as cell-based. To be noted: Homo sapiens; HUVEC proliferation stimulated with 5 ng/ml VEGF165 and 10 μg/ml heparin; 76 h incubation + 16 h 3H-thymidine. The procedure:
Human umbilical endothelial cells (HUVEC) were cultivated in IMDM (Gibco BRL), supplemented with 10% foetal calf serum (FBS) (Sigma), 50 μM of β-mercaptoethanol (Fluka), standard antibiotics, 15 μg/ml of endothelial cell growth factor (ECGS, Collaborative Biomedical Products) and 100 μg/ml of heparin (Sigma) on gelatine-coated culture dishes (0.2% gelatine, Sigma) at 37° C., under 5% CO2 in a water-saturated atmosphere.
In order to investigate the inhibitory activity of the compounds according to the invention the cells were “starved” for 16 hours, i.e. kept in culture medium without growth factors (ECGS+heparin). The cells were detached from the culture dishes using trypsin/EDTA and washed once in serum-containing medium. Then they were seeded out in amounts of 2.5×10^3 cells per well.
The proliferation of the cells was stimulated with 5 ng/ml of VEGF165 (vascular endothelial growth factor; H. Weich, GBF Braunschweig) and 10 μg/ml of heparin. As a control, 6 wells in each dish were not stimulated.
The compounds according to the invention were dissolved in 100% dimethylsulphoxide and added to the cultures in various dilutions as triple measurements, the maximum dimethylsulphoxide concentration being 0.3%.
The cells were incubated for 76 hours at 37° C., then for a further 16 hours ^3H-thymidine (0.1 μCi/well, Amersham) was added in order to determine the DNA synthesis. Then the radioactively labelled cells were immobilised on filter mats and the radioactivity incorporated was measured in a β-counter. In order to determine the inhibitory activity of the compounds according to the invention the mean value of the non-stimulated cells was subtracted from the mean value of the factor-stimulated cells (in the presence or absence of the compounds according to the invention).
The relative cell proliferation was calculated as a percentage of the control (HUVEC without inhibitor) and the concentration of active substance which inhibits the proliferation of the cells by 50% (IC50) was determined.

pIC50: −log10 of the molar value.

The term pIC50 denotes −log10 of the IC50, conventionally taken in molar units. Usually melting point stands for the temperature, or range, at which the solid turns liquid. Turning to `COC(=O)c1ccc2c(c1)NC(=O)/C2=C(\Nc1ccc(CN2CCN(C)CC2)cc1)c1ccc2c(c1)OCCO2` [(v), 3-(Z)-{1-(4-[4-methylpiperazin-1-yl-methyl]-phenylamino)-1-(3,4-ethylenedioxy-phenyl)-methylene}-6-methoxycarbonyl-2-indolinone], the melting point was in the range of 271 to 273 °C. Moreover, the negative-log IC50 (pIC50) in series [1] is 9.00.
The corresponding values for `CCCS(=O)(=O)N(CCN(C)C)c1ccc(N/C(=C2\C(=O)Nc3cc(Cl)ccc32)c2ccncc2)cc1` [(ax), 3-(Z)-{1-(4-[N-(propanesulphonyl)-N-(2-dimethylaminoethyl)-amino]-phenylamino)-1-(4-pyridyl)-methylene}-6-chloro-2-indolinone] are 228 to 232 °C and 7.43.
Taken in the same sequence, the figures for `CCNCc1ccc(N/C(=C2\C(=O)Nc3cc(F)ccc32)c2ccc3c(c2)OCCO3)cc1` [(l), 3-(Z)-{1-[4-(ethylaminomethyl)-phenylamino]-1-(3,4-ethylenedioxyphenyl)-methylene}-6-fluoro-2-indolinone] were 153 to 154 °C and 8.00.
In the case of `CN(C)Cc1ccc(N/C(=C2\C(=O)Nc3cc(Cl)ccc32)c2ccc3c(c2)ncn3C)cc1` [(f), 3-(Z)-{1-[4-(dimethylaminomethyl)-phenylamino]-1-(1-methyl-benzimidazol-5-yl)-methylene}-6-chloro-2-indolinone], the melting point was 288 °C (dec.). The pIC50 in series [1] is 8.70.
The corresponding values for `Cc1nc2ccc(/C(Nc3ccc(CN4CCCC4)cc3)=C3/C(=O)Nc4cc(Cl)ccc43)cc2[nH]1` [(ay), 3-(Z)-{1-[4-(pyrrolidin-1-yl-methyl)-phenylamino]-1-(2-methyl-benzimidazol-5-yl)-methylene}-6-chloro-2-indolinone] are 295 to 297 °C (dec.) and 7.72.
`CN(C)CC(=O)N(C)c1ccc(N/C(=C2\C(=O)Nc3cc(Cl)ccc32)c2ccncc2)cc1` [Example 3.0, 6-Chloro-3-(Z)-[1-(4-{N-(dimethylaminomethylcarbonyl)-N-methyl-amino}-phenyl-amino)-1-(4-pyridyl)-methylene]-2-indolinone]: the melting point lay within 274 to 276 °C.
The compound `O=C1Nc2cc(Cl)ccc2/C1=C(/Nc1ccc(CN2CCCC2)cc1)c1ccc2nc[nH]c2c1` [(ai), 3-(Z)-{1-[4-(pyrrolidin-1-yl-methyl)-phenylamino]-1-(benzimidazol-5-yl)-methylene}-6-chloro-2-indolinone] displayed a melting point of 277 to 279 °C. In addition, the pIC50 in series [1] was 8.52.
Taken in the same sequence, the figures for `CN(C)CC(=O)N(C)c1ccc(N/C(=C2\C(=O)Nc3cc(Cl)ccc32)c2ccc3c(c2)ncn3C)cc1` [(ak), 3-(Z)-{1-(4-[N-methyl-N-(dimethylaminomethylcarbonyl)-amino]-phenylamino)-1-(1-methyl-benzimidazol-5-yl)-methylene}-6-chloro-2-indolinone] were 270 °C and 7.52.
Taken in the same sequence, the figures for `CCNCc1ccc(N/C(=C2\C(=O)Nc3cc(C(=O)OC)ccc32)c2ccc3c(c2)OCCO3)cc1` [(u), 3-(Z)-{1-(4-[ethylamino-methyl]-phenylamino)-1-(3,4-ethylenedioxyphenyl)-methylene}-6-methoxycarbonyl-2-indolinone] were 266 °C and 9.10.
`CN1CCC(N/C(=C2\C(=O)Nc3ccccc32)c2ccoc2)CC1` [Example 6.0, 3-(Z)-[1-(1-methylpiperidin-4-ylamino)-1-(3-furyl)-methylene]-2-indolinone]: the melting point was 255 to 260 °C.
`CN(C)CC(=O)N(C)c1ccc(N/C(=C2\C(=O)Nc3ccccc32)c2ccc3c(c2)OCO3)cc1` [(aj), 3-(Z)-{1-(4-[N-methyl-N-(dimethylaminomethylcarbonyl)-amino]-phenylamino)-1-(3,4-methylenedioxyphenyl)-methylene}-2-indolinone]: the melting point was 221 to 222 °C. Besides, in series [1], the pIC50 was 7.89.
With `CN(C)CC(=O)N(C)c1ccc(N/C(=C2\C(=O)Nc3ccccc32)c2cnccn2)cc1` [Example 2.0, 3-(Z)-{1-[4-(N-dimethylaminomethylcarbonyl-N-methyl-amino)-phenylamino]-1-(2-pyrazinyl)-methylene}-2-indolinone], the melting point is 198 to 199 °C.
For the compound `CN(C)Cc1ccc(N/C(=C2\C(=O)Nc3ccccc32)c2ccc3nc[nH]c3c2)cc1` [(ag), 3-(Z)-{1-[4-(dimethylaminomethyl)-phenylamino]-1-(benzimidazol-5-yl)-methylene}-2-indolinone], the melting point is 273 to 277 °C (dec.). The pIC50 in series [1] was 7.51.

(Values after US7148249B2, “Indolinones substituted by heterocycles, the preparation thereof and their use as medicaments” (Boehringer Ingelheim Pharma GmbH & Co. KG, priority 2002, dated 2006).)
